Assay results from patent publication US20230041692A1, “NOVEL PEPTIDE HORMONES” (THE UNIVERSITY OF SYDNEY, priority 2019, published 2023).

System: C57BL/6J male mice
Assay: Crossover peptide injection trial in mice (food intake and body weight)
Type: in vivo
Conditions: intraperitoneal injection at 5pm, change measured 16 h after injection, C57BL/6J male mice at 14 weeks, compared to vehicle injection
Procedure: FIG. 6: Analysis of erusiolin producing cells, secretion in response to food and effects of erusiolin injection in mice. […] Staining is consistent with erusiolin positivity in rare enteroendocrine cell populations. […] Each line is one participant. […] Animals were randomised to the sequence of treatment days that were random in order, with washout days between injection treatment days. Peptides were injected at 5pm before the night phase and the change in body weight and food intake measured after 16 h. (n=14) ***P<0.001,*P<0.05. Erusiolin refers to the synthetic peptide of sequence APFLLEDPANQFLRL (SEQ ID NO: 2), DPP4-cleaved refers to the synthetic peptide of sequence FLLEDPANQFLRL (SEQ ID NO: 3).
In these experiments “erusiolin” refers to the synthetic peptide of sequence APFLLEDPANQFLRL (SEQ ID NO: 2), “DPP4-cleaved” refers to the synthetic peptide of sequence FLLEDPANQFLRL (SEQ ID NO: 3). These peptides were synthesised and purified as the TFA-salt by a commercial supplier (Genscript), which generated 10 mg of each peptide at >90% purity. TFA removal and formation of the HCL-peptide salt was performed by freeze-drying the peptide solution (in LC-grade H2O) for 16 h and resuspension in 500 uL of 10 mM HC1 in LC-grade H2O. This solution was then freeze-dried for 16 h. A total of three rounds of 10 mM HC1 resuspension and freeze-drying for 16 h were performed. After the final drying step, the peptides were resuspended in LC-grade H2O. The peptide solutions were analysed for TFA contamination and determination of the peptide concentration using FT-IR spectroscopy. No TFA contamination was observed and the final peptide concentrations were 5 mg/mL in LC-grade H2O. Peptides were diluted in vehicle (1 mg/ml mouse albumin in PBS) before injection.
C57BL/6J male mice at 14 weeks of age were treated with either vehicle, erusiolin, or the DPP4-cleaved peptide in a crossover trial study using intraperitoneal injection of the peptides. Each mouse was randomly allocated to a sequence of treatments. Each sequence had treatments in a random order. One treatment was performed per mouse per day and injections were at 5pm just before the night feeding period. Between each treatment day a washout day was included where no injection was performed to allow the previous days treatment to be degraded and minimise confounding effects. The food intake and body weight of each animal was measured just prior to injection and again 16 h after injection. This enable the calculation of the mass delta (change) for food intake and body mass. A repeated-measures one-way ANOVA was used to determine significance between the vehicle negative control treatment and the other treatments. Statistical analyses were performed using R (version 3.4.3) and processed data was plotted using Tableau (version 10.0.2). […]

Sequence	body weight	food intake
APFLLEDPANQFLRL [erusiolin]	significant decrease	significant decrease
FLLEDPANQFLRL [DPP4-cleaved]	not significant or less significant	not significant or less significant
